Literature values as cited in US20070166389A1, “Stabilized lyophilized blood platelets” (priority 2005, published 2007).

Assays:
[1] = dosages effective for increasing bile salt secretion
sickle erythrocytes = details: glyceraldehyde treatment in vitro

Row | Compound | abnormal symptoms in liver or kidney [1] | deleterious effects of the treatment (sickle erythrocytes) | life span in vivo of sickle erythrocytes (sickle erythrocytes)
1 | COC(=O)C1=CO[C@@H](O)[C@@H]2C(CO)=CC[C@H]12 [genipin] | do not cause any abnormal symptoms in the liver or kidney | – | –
2 | O=CC(O)CO (stereo not drawn) [glyceraldehyde] | – | failed to show any deleterious effects | prolongation of the life span of sickle erythrocytes
